Results published in patent US20040047804A1, “Enhanced radiation therapy” (The General Hospital Corporation, a Massachusetts …, priority 1998, published 2004).
Like-named read-outs stand apart in the source and are kept apart here.

Key:
VX2 tumors [1] = system: VX2 tumors
Protocol: About […] of either a small molecule radiodense material (iohexol) or a large molecule radiodense material (WIN 8883) was injected directly into separate VX2 tumors growing in the thigh of a rabbit. To measure the diffusion time of the two materials in the tumor interstitium, the rabbit was euthanized and the corpus imaged using CT over the next 24 hours to measure the spatial and temporal distribution of each material.

[2] = system: V79 Chinese Hamster Ovary cancer cells; test: In vitro radiation enhancement, survival of irradiated tumor cells; assay type: cell-based; settings: radiation dosage of 9.0 Gy
Excerpt: The effect of the new radiodense compositions on cancer cells was also studied in vitro. Individual V79 Chinese Hamster Ovary cancer cells were suspended in nutrient medium in test tubes and mixed with a sufficient amount of one of several new radiodense compositions to increase the radiodensity of the cell suspension. […] At a radiation energy level of 12 Gy, about 8×10^-1 cells survived in the nutrient medium alone, while only 1×10^-3 to 1×10^-4 survived in the presence of the radiodense materials.

[3] = system: human adenocarcinomas (LS 174T); parameters: species or system mice; settings: mouse, in vivo
Protocol: Immunologically tolerant mice were implanted with several different human neoplasms. When the tumors reached a size of 1-2 cm, radiodense compositions were injected intratumorally via a percutaneous route using a 27 gauge needle. The mice and their tumors where then serially imaged with computed tomography to determine the local pharmacokinetics of the injectates by measuring the x-ray attenuation (in HU) of regions of interest.
FIG. 3 is a plot of the temporal change of x-ray attenuation in a mouse bearing a human adenocarcinomas (LS 174T). The radiodense material was a water soluble, small molecule radiodense material (Omnipaque™ with a concentration of 350 mg I/ml as iohexol). A peak contrast of nearly 3000 HU was attained in the center of the tumor, with smaller degrees of contrast enhancement surrounding the injected area. This small molecule was rapidly cleared with values of only 2000 HU at the peak location 60 minutes later.

VX2 tumors [4] = test: In vivo radiation enhancement, systemic radiodense material plus internal radiation probe; parameters: species or system rabbit; settings: systemic bolus 3 ml/kg
Protocol: Three rabbits with VX2 tumors growing in the thigh were used to evaluate the radiation therapy effect of the new radiodense compositions and radiation administered internally. In the first rabbit, iohexol was injected systemically as a bolus in a volume of 3 ml/kg, resulting in a peak enhancement of the leaky edge of the tumor by over 50 HU. Radiation of 30 Gy was administered over 45 minutes using a delivery energy of 40 Kev from the probe tip, which was centered in the tumor. The next day, the rabbit was euthanized following the administration of Evans Blue to demarcate the leaky vasculature of the treated tumor as well as an untreated, control tumor in the opposite thigh. […] All of the viable cells were located in the edge of the treated tumor and this edge of viable cells was much smaller than the rim of viable cells in the untreated tumor. Two additional rabbits were treated with a nearly identical protocol, except that the same radiodense material was given as an intravenous bolus plus a sustaining infusion to keep the leaky portions of the tumor enhanced for the entire duration of the radiation treatment. In these two experiments, no evidence of viable tumor was seen on serial computed tomography studies over the next several days. […]

Row | Structure (SMILES) | Volume (total number of intratumoral voxels containing at least 200 HU) (VX2 tumors [1]; 1.5 Hrs) [voxels] | Volume (total number of intratumoral voxels containing at least 200 HU) (VX2 tumors [1]; 4.5 Hrs) [voxels] | Volume (total number of intratumoral voxels containing at least 200 HU) (VX2 tumors [1]; 21.0 Hrs) [voxels] | Volume (total number of intratumoral voxels containing at least 200 HU) (VX2 tumors [1]; Initial) [voxels] | relative effectiveness among the radiodense materials [2] | x-ray attenuation at the peak location 60 minutes later [3] [HU] | peak enhancement of the leaky edge of the tumor (VX2 tumors [4]) | necrosis of viable tumor cells in the treated leg, compared with the control (VX2 tumors [4]; 30 Gy over 45 minutes at 40 Kev from probe centered in tumor, histology next day)
1 | CCOC(=O)c1c(I)c(NC(C)=O)c(I)c(NC(C)=O)c1I [Win 8883, ethyl-bis(3,5-acetylamino)-2,4,6-triiodobenzoate] | 10898 | 11826 | 11682 | 10420 |  |  |  | 
2 | CC(=O)N(CC(O)CN(C(C)=O)c1c(I)c(C(=O)NCC(O)CO)c(I)c(C(=O)NCC(O)CO)c1I)c1c(I)c(C(=O)NCC(O)CO)c(I)c(C(=O)NCC(O)CO)c1I (stereo not drawn) [iodix, iodixanol] |  |  |  |  | more effective |  |  | 
3 | CC(=O)N(CC(O)CO)c1c(I)c(C(=O)NCC(O)CO)c(I)c(C(=O)NCC(O)CO)c1I (stereo not drawn) [iohexol] | 23912 | 22104 | 44720 | 12722 |  | 2000 | over 50 HU | about 95%
